# Data published in PubChem BioAssay (NCI).
#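 Dose response: 5 concentrations. Exposure: 48 h. Format: 96-well plates. Endpoint: linear interpolation; highest concentration if not reached. TGI: total growth inhibition.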
# How the values were obtained:
# Assay in all cases: growth of human tumour cells (NCI), 48 h
# 786-0 renal = system: 786-0 renal
# A549 NSCLC = system: A549 NSCLC
# CCRF-CEM leukemia = system: CCRF-CEM leukemia
# DU-145 prostate = system: DU-145 prostate
# EKVX NSCLC = system: EKVX NSCLC
# MALME-3M melanoma = system: MALME-3M melanoma
# MDA-MB-435 = system: MDA-MB-435
# MDA-N = system: MDA-N
# NCI-H23 lung = system: NCI-H23 lung
# NCI-H522 lung = system: NCI-H522 lung
# OVCAR-3 ovarian = system: OVCAR-3 ovarian
# OVCAR-5 ovarian = system: OVCAR-5 ovarian
# SF-268 CNS = system: SF-268 CNS
# SK-MEL-2 melanoma = system: SK-MEL-2 melanoma
# SNB-19 CNS = system: SNB-19 CNS
Structure (SMILES),TGI (786-0 renal) [µM],TGI (A549 NSCLC) [µM],TGI (CCRF-CEM leukemia) [µM],TGI (DU-145 prostate) [µM],TGI (EKVX NSCLC) [µM],TGI (MALME-3M melanoma) [µM],TGI (MDA-MB-435) [µM],TGI (MDA-N) [µM],TGI (NCI-H23 lung) [µM],TGI (NCI-H522 lung) [µM],TGI (OVCAR-3 ovarian) [µM],TGI (OVCAR-5 ovarian) [µM],TGI (SF-268 CNS) [µM],TGI (SK-MEL-2 melanoma) [µM],TGI (SNB-19 CNS) [µM]
COC1=C(Cl)C(=O)c2c(O)ccc(O)c2C1=O,0.864,19.3,0.213,6.83,10.6,1.1,3.13,4.8,4.62,0.564,1.04,7.49,6.25,3.25,17.1
CN(C)CCOc1ccc(-c2c(Oc3ccccc3)c(=O)oc3ccccc23)cc1,20.5,15.3,4.94,29.3,27.5,25.8,21.2,4.7,28.6,24.1,26,29.2,25.4,28.9,20.8
CCN(CC)c1ccc(/C=C2\CCc3ccc([N+](=O)[O-])cc3C2=O)cc1,> 100,> 100,> 100,> 100,> 100,> 100,0.744,0.523,> 100,> 100,56.9,> 100,> 100,,> 30.1
O=c1c2cnccc2cc2c3ccccc3ccn12,> 100,> 100,> 100,> 100,> 100,> 100,> 100,> 100,> 100,> 100,> 100,> 100,> 100,> 100,> 100
CCOC1NC(=O)Oc2cc3ccccc3cc21 (stereo unspecified),> 100,> 100,> 100,> 100,> 100,> 100,> 100,> 100,> 100,> 100,> 100,> 100,> 100,,> 100
Cc1cc(Nc2ccc(NS(C)(=O)=O)cc2)c2c(ccc3nccc32)[nH]1,45.2,> 100,> 100,40.1,> 100,27.8,30.5,31.5,49.6,23.4,29.1,75.1,23,30.5,48.8
COC(=O)c1ccccc1/C=C1\Cc2ccc3c(c2C1=O)CCCC3,> 100,> 100,> 100,> 100,> 100,> 100,> 100,> 100,> 100,> 100,> 100,> 100,> 100,> 100,> 100
O=C(OC1CN2CCC1CC2)N(c1ccccc1)c1ccccc1 (stereo unspecified),> 100,> 100,> 100,> 100,> 100,> 100,> 100,> 100,> 100,> 100,> 100,> 100,> 100,> 100,> 100
CC(=O)O[C@H]1C[C@@H](OC(C)=O)[C@@](C)(O)[C@@H]2[C@@H](OC(C)=O)[C@@]3(O)[C@H](/C=C(/CO)[C@H]4O[C@H]4[C@@H](OC(C)=O)[C@@]12C)OC(=O)[C@@H]3C,> 25,> 25,> 25,12,> 25,> 25,> 25,7.63,> 25,15.6,15.5,> 25,> 25,> 25,> 25
Cc1ccc(-c2cc[n+]3c(n2)oc2ccccc23)cc1,29.5,> 100,36.3,> 100,56.2,29.1,57.6,> 100,> 100,20,40.9,> 100,> 100,46.6,> 100
CC1(C)C2CCC1C(=O)[C@@]1(C=CC(=O)CC1)C2 (stereo partly specified),> 100,> 100,> 100,> 100,> 100,> 100,> 100,> 100,> 100,> 100,> 100,> 100,> 100,,> 100
C=CCOC(=O)N1c2ccc(O)cc2[C@@]23O[C@@]24[C@@H]1C#C/C=C\C#C[C@]3(O)C(OC)(OC)C[C@@H]4C,78.3,> 100,76.8,> 100,> 100,82,53.7,77.5,93,74.6,,> 100,> 100,58.3,> 100
